# According to the supplement of paper PMC10307832:
# Columns and labels:
# Assay in all cases: relative viability (nuclei count vs DMSO), 5 days (fraction); higher = more cells survive
# NCI-H23 = test system: NCI-H23
# In short: (§1)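 Each reported value is a median over duplicate plates. It expresses relative viability: treated-well nuclei count divided by vehicle-well nuclei count. Lung cancer cell lines in 1536-well plates were dosed by pin tool a day after seeding, alone with one drug or with a fixed anchor-drug dose plus five library-drug doses (not always all listed) in √10 steps, and nuclei were counted after 5 days.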
# NCI-H441 = test system: NCI-H441
# In short: as §1
# UMC-11 = test system: UMC-11
# In short: as §1
# PC-3 [JPC-3] = test system: PC-3 [JPC-3]
# In short: as §1
# NCI-H2170 = test system: NCI-H2170
# In short: as §1
# NCI-H2228 = test system: NCI-H2228
# In short: as §1
# NCI-H727 = test system: NCI-H727
# In short: as §1
# H3255 = test system: H3255
# In short: as §1
# EPLC-272H = test system: EPLC-272H
# In short: as §1
# LOU-NH91 = test system: LOU-NH91
# In short: as §1
# NCI-H2087 = test system: NCI-H2087
# In short: as §1
# NCI-H2085 = test system: NCI-H2085
# In short: as §1
# SW 1573 = test system: SW 1573
# In short: as §1
# NCI-H1975 = test system: NCI-H1975
# In short: as §1
# NCI-H650 = test system: NCI-H650
# In short: as §1
# LC-2-ad = test system: LC-2-ad
# In short: as §1
# NCI-H1651 = test system: NCI-H1651
# In short: as §1
# NCI-H838 = test system: NCI-H838
# In short: as §1
# NCI-H2009 = test system: NCI-H2009
# In short: as §1
# HARA = test system: HARA
# In short: as §1
# NCI-H2023 = test system: NCI-H2023
# In short: as §1
smiles,measurement,setting,value
CCNC(=O)c1noc(-c2cc(C(C)C)c(O)cc2O)c1-c1ccc(CN2CCOCC2)cc1 [Luminespib] + Cc1nc(NC(=O)N2CCC[C@H]2C(N)=O)sc1-c1ccnc(C(C)(C)C(F)(F)F)c1 [Alpelisib] (partner 2 µM),relative viability,NCI-H23; first compound 0.002 µM,0.814
same,relative viability,NCI-H23; first compound 0.006325 µM,0.56
same,relative viability,NCI-H23; first compound 0.02 µM,0.504
same,relative viability,NCI-H23; first compound 0.06325 µM,0.141
same,relative viability,NCI-H23; first compound 0.2 µM,0.116
same,relative viability,NCI-H441; first compound 0.002 µM,0.619
same,relative viability,NCI-H441; first compound 0.006325 µM,0.825
same,relative viability,NCI-H441; first compound 0.02 µM,0.739
same,relative viability,NCI-H441; first compound 0.06325 µM,0.126
same,relative viability,NCI-H441; first compound 0.2 µM,0.148
same,relative viability,UMC-11; first compound 0.002 µM,0.943
same,relative viability,UMC-11; first compound 0.006325 µM,0.907
same,relative viability,UMC-11; first compound 0.02 µM,0.653
same,relative viability,UMC-11; first compound 0.06325 µM,0.342
same,relative viability,UMC-11; first compound 0.2 µM,0.129
same,relative viability,PC-3 [JPC-3]; first compound 0.002 µM,1.09
same,relative viability,PC-3 [JPC-3]; first compound 0.006325 µM,0.908
same,relative viability,PC-3 [JPC-3]; first compound 0.02 µM,0.871
same,relative viability,PC-3 [JPC-3]; first compound 0.06325 µM,1.08
same,relative viability,PC-3 [JPC-3]; first compound 0.2 µM,0.957
same,relative viability,NCI-H2170; first compound 0.002 µM,0.763
same,relative viability,NCI-H2170; first compound 0.006325 µM,0.79
same,relative viability,NCI-H2170; first compound 0.02 µM,0.526
same,relative viability,NCI-H2170; first compound 0.06325 µM,0.504
same,relative viability,NCI-H2170; first compound 0.2 µM,0.172
same,relative viability,NCI-H2228; first compound 0.002 µM,0.808
same,relative viability,NCI-H2228; first compound 0.006325 µM,0.595
same,relative viability,NCI-H2228; first compound 0.02 µM,0.156
same,relative viability,NCI-H2228; first compound 0.06325 µM,0.142
same,relative viability,NCI-H2228; first compound 0.2 µM,0.136
same,relative viability,NCI-H727; first compound 0.002 µM,0.553
same,relative viability,NCI-H727; first compound 0.006325 µM,0.584
same,relative viability,NCI-H727; first compound 0.02 µM,0.504
same,relative viability,NCI-H727; first compound 0.06325 µM,0.234
same,relative viability,NCI-H727; first compound 0.2 µM,0.228
same,relative viability,H3255; first compound 0.002 µM,0.775
same,relative viability,H3255; first compound 0.006325 µM,0.636
same,relative viability,H3255; first compound 0.02 µM,0.508
same,relative viability,H3255; first compound 0.06325 µM,0.586
same,relative viability,H3255; first compound 0.2 µM,0.195
same,relative viability,EPLC-272H; first compound 0.006325 µM,0.811
same,relative viability,EPLC-272H; first compound 0.02 µM,0.674
same,relative viability,EPLC-272H; first compound 0.06325 µM,0.879
same,relative viability,EPLC-272H; first compound 0.2 µM,0.93
same,relative viability,LOU-NH91; first compound 0.002 µM,0.717
same,relative viability,LOU-NH91; first compound 0.006325 µM,0.646
same,relative viability,LOU-NH91; first compound 0.02 µM,0.543
same,relative viability,LOU-NH91; first compound 0.06325 µM,0.43
same,relative viability,LOU-NH91; first compound 0.2 µM,0.381
same,relative viability,NCI-H2087; first compound 0.002 µM,1.2
same,relative viability,NCI-H2087; first compound 0.006325 µM,0.907
same,relative viability,NCI-H2087; first compound 0.02 µM,1.3
same,relative viability,NCI-H2087; first compound 0.06325 µM,0.193
same,relative viability,NCI-H2087; first compound 0.2 µM,0.184
same,relative viability,NCI-H2085; first compound 0.002 µM,0.967
same,relative viability,NCI-H2085; first compound 0.006325 µM,0.989
same,relative viability,NCI-H2085; first compound 0.02 µM,0.937
same,relative viability,NCI-H2085; first compound 0.06325 µM,0.542
same,relative viability,NCI-H2085; first compound 0.2 µM,0.397
same,relative viability,SW 1573; first compound 0.002 µM,0.714
same,relative viability,SW 1573; first compound 0.006325 µM,0.728
same,relative viability,SW 1573; first compound 0.02 µM,0.501
same,relative viability,SW 1573; first compound 0.06325 µM,0.165
same,relative viability,SW 1573; first compound 0.2 µM,0.113
same,relative viability,NCI-H1975; first compound 0.002 µM,0.667
same,relative viability,NCI-H1975; first compound 0.006325 µM,0.512
same,relative viability,NCI-H1975; first compound 0.02 µM,0.233
same,relative viability,NCI-H1975; first compound 0.06325 µM,0.137
same,relative viability,NCI-H1975; first compound 0.2 µM,0.126
same,relative viability,NCI-H650; first compound 0.002 µM,1.24
same,relative viability,NCI-H650; first compound 0.006325 µM,1.04
same,relative viability,NCI-H650; first compound 0.02 µM,0.994
same,relative viability,NCI-H650; first compound 0.06325 µM,0.193
same,relative viability,NCI-H650; first compound 0.2 µM,0.145
same,relative viability,LC-2-ad; first compound 0.002 µM,0.881
same,relative viability,LC-2-ad; first compound 0.006325 µM,0.821
same,relative viability,LC-2-ad; first compound 0.02 µM,0.858
same,relative viability,LC-2-ad; first compound 0.06325 µM,0.123
same,relative viability,LC-2-ad; first compound 0.2 µM,0.092
same,relative viability,NCI-H1651; first compound 0.002 µM,0.899
same,relative viability,NCI-H1651; first compound 0.006325 µM,0.854
same,relative viability,NCI-H1651; first compound 0.02 µM,0.881
same,relative viability,NCI-H1651; first compound 0.06325 µM,0.42
same,relative viability,NCI-H1651; first compound 0.2 µM,0.262
same,relative viability,NCI-H838; first compound 0.002 µM,1.03
same,relative viability,NCI-H838; first compound 0.006325 µM,0.927
same,relative viability,NCI-H838; first compound 0.02 µM,0.589
same,relative viability,NCI-H838; first compound 0.06325 µM,0.168
same,relative viability,NCI-H838; first compound 0.2 µM,0.153
same,relative viability,NCI-H2009; first compound 0.002 µM,1.29
same,relative viability,NCI-H2009; first compound 0.006325 µM,1.02
same,relative viability,NCI-H2009; first compound 0.02 µM,1.28
same,relative viability,NCI-H2009; first compound 0.06325 µM,0.698
same,relative viability,NCI-H2009; first compound 0.2 µM,0.0841
same,relative viability,HARA; first compound 0.002 µM,0.835
same,relative viability,HARA; first compound 0.006325 µM,0.676
same,relative viability,HARA; first compound 0.02 µM,0.85
same,relative viability,HARA; first compound 0.06325 µM,0.759
same,relative viability,HARA; first compound 0.2 µM,0.103
same,relative viability,NCI-H2023; first compound 0.002 µM,0.59
same,relative viability,NCI-H2023; first compound 0.006325 µM,0.609
same,relative viability,NCI-H2023; first compound 0.02 µM,0.529
same,relative viability,NCI-H2023; first compound 0.06325 µM,0.255
same,relative viability,NCI-H2023; first compound 0.2 µM,0.0672
